Where “and” joins values, the source holds several entries; their conditions need not be identical. Identical values can stand only once.
Biological target: T1, MUTE_ACTLR133A_R134A_E162A_E163A (Arabidopsis thaliana, UniProt Q9M8K6, E162A/E163A/R133A/R134A)
T1 construct: MUTE-ACTL (114-202); made in house; host or cells: E. coli BL21
Experiment: BLI direct binding
Design: species or system A. thaliana
Conditions: for Response: MUTE_R133A_R134A_E162A_E163A on Anti-GST sensor, rep-1, rep-2

T1 sequence (Q9M8K6 114-202 R133A/R134A/E162A/E163A): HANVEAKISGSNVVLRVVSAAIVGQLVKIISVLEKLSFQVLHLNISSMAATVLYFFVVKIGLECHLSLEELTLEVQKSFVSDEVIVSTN

Question: With `O=C1C(c2ccccc2)=NC(NS(=O)(=O)c2ccccc2)(c2ccccc2)N1S(=O)(=O)c1ccccc1` (centres unmarked) [Stomidazolone] as the molecule, how does the “KD (SS)” value (BLI steady state, MUTE_ACTL R133A_R134A_E162A_E163A, ND = no binding was detected) read?
Answer: no binding was detected

Question: And the Response (Stomid 3.12 µM)?
Answer: 0.021 and 0.041

Question: And the Response (Stomid 6.25 µM)?
Answer: 0.061 and 0.035

Question: And the Response (Stomid 12.5 µM)?
Answer: 0.063 and 0.047

Question: What about the Response (Stomid 25 µM) of the same molecule?
Answer: 0.078 and 0.041

Question: What about the Response (Stomid 50 µM) of the same molecule?
Answer: 0.062 and 0.082

Question: And the Response (Stomid 100 µM)?
Answer: 0.075 and 0.108

Question: What about the Response (Stomid 200 µM) of the same molecule?
Answer: 0.104 and 0.136
